Assays:
Histamine H3 receptor [1] = target: T1, Histamine H3 receptor (Cavia porcellus, UniProt Q9JI35); test: Displacement of [3H]N-alpha-methylhistamine from histamine H3 receptor in guinea pig brain
Histamine H3 receptor [2] = target: T1, Histamine H3 receptor; test: Antagonist potency against histamine H3 receptor in an electrically stimulated guinea pig ileum; type: functional, tissue-based; details: read-out: pA2 (converted)
Histamine H3 receptor [3] = target: Histamine H3 receptor (Homo sapiens, UniProt Q9Y5N1); test: Displacement of [3H]N-alpha-methylhistamine from histamine H3 receptor in human brain
Chain of Histamine H3 receptor (Homo sapiens, UniProt Q9Y5N1) (Q9Y5N1 whole entry): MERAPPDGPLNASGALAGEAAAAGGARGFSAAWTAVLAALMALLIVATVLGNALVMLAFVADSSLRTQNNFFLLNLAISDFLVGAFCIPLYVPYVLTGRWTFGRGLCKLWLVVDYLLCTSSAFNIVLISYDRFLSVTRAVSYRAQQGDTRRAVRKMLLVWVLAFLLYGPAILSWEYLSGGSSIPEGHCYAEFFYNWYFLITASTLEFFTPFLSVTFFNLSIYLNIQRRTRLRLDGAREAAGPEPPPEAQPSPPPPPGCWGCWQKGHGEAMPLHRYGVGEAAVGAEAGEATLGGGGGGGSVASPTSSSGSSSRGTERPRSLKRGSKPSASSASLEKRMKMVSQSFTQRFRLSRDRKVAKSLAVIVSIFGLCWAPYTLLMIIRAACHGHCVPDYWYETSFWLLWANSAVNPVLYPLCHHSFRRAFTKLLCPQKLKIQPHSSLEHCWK

Cytochrome P450 2D6 = Cytochrome P450 2D6 (Homo sapiens, UniProt P10635); test: Inhibition of CYP2D6 in human liver microsomes; type: ADME, Microsome
Chain of Cytochrome P450 2D6 (P10635 whole entry): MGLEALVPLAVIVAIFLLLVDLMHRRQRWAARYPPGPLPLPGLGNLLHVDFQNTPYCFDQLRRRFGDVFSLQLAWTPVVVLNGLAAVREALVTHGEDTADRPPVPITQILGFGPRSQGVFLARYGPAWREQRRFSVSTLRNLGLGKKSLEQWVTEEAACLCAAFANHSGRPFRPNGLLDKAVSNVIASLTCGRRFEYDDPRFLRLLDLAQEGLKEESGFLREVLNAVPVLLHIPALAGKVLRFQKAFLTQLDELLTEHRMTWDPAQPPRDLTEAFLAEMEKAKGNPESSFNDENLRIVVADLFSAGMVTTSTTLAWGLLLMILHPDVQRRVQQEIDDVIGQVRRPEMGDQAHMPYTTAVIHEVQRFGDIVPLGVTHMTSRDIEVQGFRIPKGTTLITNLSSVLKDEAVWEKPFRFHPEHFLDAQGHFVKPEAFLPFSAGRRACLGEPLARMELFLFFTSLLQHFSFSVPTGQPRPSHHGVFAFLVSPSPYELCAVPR

Histamine H1 receptor = Histamine H1 receptor (Cavia porcellus, UniProt P31389); test: Displacement of [3H]N-alpha-methylhistamine from histamine H1 receptor in guinea pig brain
Chain of Histamine H1 receptor (P31389 whole entry): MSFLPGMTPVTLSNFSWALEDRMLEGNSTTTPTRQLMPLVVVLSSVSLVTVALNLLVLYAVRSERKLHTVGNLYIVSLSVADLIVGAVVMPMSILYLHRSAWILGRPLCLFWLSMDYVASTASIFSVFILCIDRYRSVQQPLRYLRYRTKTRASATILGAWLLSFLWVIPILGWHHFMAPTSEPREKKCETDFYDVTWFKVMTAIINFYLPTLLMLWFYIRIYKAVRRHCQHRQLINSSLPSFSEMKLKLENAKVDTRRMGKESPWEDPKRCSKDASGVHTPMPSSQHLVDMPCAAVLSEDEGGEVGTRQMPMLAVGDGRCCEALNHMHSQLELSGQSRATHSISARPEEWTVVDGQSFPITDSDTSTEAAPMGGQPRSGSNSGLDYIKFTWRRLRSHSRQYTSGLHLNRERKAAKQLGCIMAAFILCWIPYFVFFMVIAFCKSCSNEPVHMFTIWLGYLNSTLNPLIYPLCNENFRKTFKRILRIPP

T1 sequence (Q9JI35 whole entry): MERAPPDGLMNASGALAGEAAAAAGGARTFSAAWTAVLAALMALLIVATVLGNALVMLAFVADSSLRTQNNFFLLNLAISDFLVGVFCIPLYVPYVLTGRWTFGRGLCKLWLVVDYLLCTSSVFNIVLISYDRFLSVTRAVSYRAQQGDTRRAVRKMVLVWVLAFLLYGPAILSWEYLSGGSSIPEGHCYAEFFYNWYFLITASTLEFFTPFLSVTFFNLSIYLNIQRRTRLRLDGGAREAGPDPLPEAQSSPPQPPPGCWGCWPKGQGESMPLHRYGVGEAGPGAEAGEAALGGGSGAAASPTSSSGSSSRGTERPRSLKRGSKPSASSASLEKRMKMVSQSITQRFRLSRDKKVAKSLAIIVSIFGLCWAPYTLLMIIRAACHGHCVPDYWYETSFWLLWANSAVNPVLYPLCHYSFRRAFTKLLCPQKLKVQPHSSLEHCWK

| Structure (SMILES) | Ki (Histamine H3 receptor [1]) | Kb (Histamine H3 receptor [2]) | other results |
| --- | --- | --- | --- |
| COC(=O)c1ccc(OCCC(=O)N2CCC(Cc3c[nH]cn3)CC2)cc1 | 625 nM |  |  |
| CN(C(=O)CCN1CCC(Cc2cnc[nH]2)CC1)c1ccc(Cl)cc1 | 60 nM |  |  |
| O=C(CCN1CCC(Cc2cnc[nH]2)CC1)NC1CCCCC1 | 3 nM | 6.31 nM |  |
| O=C(CCCCN1CCC(Cc2cnc[nH]2)CC1)Nc1ccc(Cl)cc1 | 40 nM |  |  |
| c1ccc(CCCCN2CCC(Cc3cnc[nH]3)CC2)cc1 | 5 nM | 6.31 nM |  |
| CCCCCCC(=O)N1CCC(Cc2c[nH]cn2)CC1 | 18 nM | 39.8 nM |  |
| c1ccc(OCCCN2CCC(Cc3c[nH]cn3)CC2)cc1 |  | 5.01 nM |  |
| Clc1cccc(OCCCN2CCC(Cc3cnc[nH]3)CC2)c1 | 2 nM | 12.6 nM |  |
| O=C(CCN1CCC(Cc2c[nH]cn2)CC1)Nc1cccc(F)c1 | 0.2 nM | 0.126 nM | Ki (Histamine H3 receptor [3]): 1.9 nM; IC50 (Cytochrome P450 2D6): 100 nM |
| O=C(CCCN1CCC(Cc2cnc[nH]2)CC1)Nc1ccc(Cl)cc1 | 17 nM | 5.01 nM |  |
| O=C(NCCN1CCC(Cc2cnc[nH]2)CC1)c1ccc(Cl)cc1 | 9 nM | 12.6 nM |  |
| O=S(=O)(CCCN1CCC(Cc2c[nH]cn2)CC1)c1ccccc1 | 25 nM | 79.4 nM |  |
| O/N=C/c1ccc(OCCCN2CCC(Cc3c[nH]cn3)CC2)cc1 | 44 nM |  |  |
| Clc1cccc(NCCCN2CCC(Cc3cnc[nH]3)CC2)c1 | 2 nM | 3.98 nM |  |
| O=S(=O)(CCN1CCC(Cc2c[nH]cn2)CC1)Nc1ccc(Cl)cc1 | 170 nM |  |  |
| O=C(NCCCN1CCC(Cc2cnc[nH]2)CC1)c1ccc(Cl)cc1 | 13 nM |  |  |
| O=C(CCC(=O)N1CCC(Cc2c[nH]cn2)CC1)Nc1ccc(Cl)cc1 | 970 nM |  |  |
| O=C(CCCc1ccccc1)N1CCC(Cc2cnc[nH]2)CC1 | 9 nM | 15.8 nM |  |
| N#Cc1ccc(OCCCN2CCC(Cc3c[nH]cn3)CC2)cc1 | 20 nM |  |  |
| COc1ccc(NC(=O)CCN2CCC(Cc3cnc[nH]3)CC2)cc1 | 3 nM | 1.58 nM |  |
| O=C(CCN1CCC(Cc2c[nH]cn2)CC1)Nc1ccc(Cl)cc1 |  | 0.0794 nM | Ki (Histamine H3 receptor [3]): 1.7 nM; Ki (Histamine H1 receptor): 290 nM; IC50 (Cytochrome P450 2D6): 40 nM |
| O=C(CCN1CCC(Cc2c[nH]cn2)CC1)Nc1cccc(Cl)c1 |  | 0.158 nM | Ki (Histamine H3 receptor [3]): 0.4 nM |
| Clc1ccc(CCCCN2CCC(Cc3cnc[nH]3)CC2)cc1 | 6 nM | 1.58 nM |  |
| COC(=O)c1ccc(NC(=O)CCN2CCC(Cc3cnc[nH]3)CC2)cc1 | 3 nM | 1.58 nM |  |
| O=C(CCOc1ccccc1)N1CCC(Cc2cnc[nH]2)CC1 |  | 15.8 nM |  |
| O=C(CCN1CCC(Cc2c[nH]cn2)CC1)NCc1ccc(Cl)cc1 | 21 nM |  |  |
| O=C(CCN1CCC(Cc2c[nH]cn2)CC1)Nc1ccccc1 | 2 nM | 1.26 nM |  |
| CCCCCCCN1CCC(Cc2cnc[nH]2)CC1 |  | 2.51 nM |  |
| c1nc(CC2CCNCC2)c[nH]1 [IMMEPIP] | 0.4 nM |  |  |

From ChEMBL document CHEMBL1147768, “Novel histamine H3 receptor antagonists based on the 4-[(1H-imidazol-4-yl)methyl]piperidine scaffold” (Bioorg Med Chem Lett, 2006)
